Assay results as given in US5623049A (Bayer Aktiengesellschaft, priority 1993, dated 1997).

How the values were obtained:
S1 nuclease = biological target: T1, S1 nuclease (Aspergillus oryzae, UniProt P24021); assay: Stability towards nucleases: S1 nuclease; format: in vitro ADME; details: 75 μg of oligomer, 5 μl of nuclease (40 units), 37° C., 3 hours; PAGE, UV shadowing; note: key: '+' denotes stability; no enzymic degradation
T1 sequence (P24021 21-287): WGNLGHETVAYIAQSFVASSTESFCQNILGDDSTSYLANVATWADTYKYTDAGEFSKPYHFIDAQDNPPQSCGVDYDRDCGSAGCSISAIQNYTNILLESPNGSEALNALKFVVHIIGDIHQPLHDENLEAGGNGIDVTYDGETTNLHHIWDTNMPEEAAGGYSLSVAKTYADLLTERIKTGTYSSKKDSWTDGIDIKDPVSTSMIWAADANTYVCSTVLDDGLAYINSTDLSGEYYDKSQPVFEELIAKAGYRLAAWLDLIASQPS
Description: (§1) Subsequently, the gel was analysed by UV shadowing. […] The oligomers are stable towards the nucleases and cell extracts which were tested.

Endoprotease LYS--C = Endoprotease LYS--C (Lysobacter enzymogenes, UniProt Q7M135); assay: Stability towards proteases: Endoprotease LYS--C; format: in vitro ADME; details: 75 μg of oligomer, 5 μl of protease, 37° C., 3 hours; PAGE, UV shadowing, silver staining; note: key: '+' denotes stability; no enzymic degradation
Endoprotease LYS--C, sequence (Q7M135 whole entry): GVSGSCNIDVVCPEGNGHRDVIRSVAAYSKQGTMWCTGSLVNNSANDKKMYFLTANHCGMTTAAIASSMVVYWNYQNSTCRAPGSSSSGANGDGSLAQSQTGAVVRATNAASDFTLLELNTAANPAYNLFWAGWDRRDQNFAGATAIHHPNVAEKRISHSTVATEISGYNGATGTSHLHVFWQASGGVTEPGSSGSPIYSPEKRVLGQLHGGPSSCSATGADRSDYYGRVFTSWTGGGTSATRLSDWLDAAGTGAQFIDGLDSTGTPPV
Description: (§2) Subsequently, the gel was analysed by UV shadowing.

Trypsin = assay: Stability towards proteases: Trypsin; format: in vitro ADME; details: 75 μg of oligomer, 5 μl of protease, 37° C., 3 hours; PAGE, UV shadowing, silver staining; note: key: '+' denotes stability; no enzymic degradation
Description: as §2

Bal31 nuclease = assay: Stability towards nucleases: Bal31 nuclease; format: in vitro ADME; details: 75 μg of oligomer, 5 μl of nuclease (40 units), 37° C., 3 hours; PAGE, UV shadowing; note: key: '+' denotes stability; no enzymic degradation
Description: as §1

Protease IX = assay: Stability towards proteases: Protease IX; format: in vitro ADME; details: 75 μg of oligomer, 5 μl of protease, 37° C., 3 hours; PAGE, UV shadowing, silver staining; note: key: '+' denotes stability; no enzymic degradation
Description: as §2

Protease XXI = assay: Stability towards proteases: Protease XXI; format: in vitro ADME; details: 75 μg of oligomer, 5 μl of protease, 37° C., 3 hours; PAGE, UV shadowing, silver staining; note: key: '+' denotes stability; no enzymic degradation
Description: as §2

[1] = Stability towards nucleases: blood; format: in vitro ADME; details: 75 μg of oligomer, lysed blood, nuclease buffer, 37° C., 3 hours; note: key: '+' denotes stability; no enzymic degradation
Description: (§3) Cell extracts from T-lymphocytes and blood were also employed for the stability investigations in addition to the purified, defined nucleases. For this purpose, 50 ml of cell suspension were centrifuged down at 2000 rpm, taken up in 500 μl of Tris/HCl buffer, pH 7.5; 40 mM CaCl2, and lysed with 5 μl of 20% SDS. Following dialysis against 0.1 M Tris/HCl, pH 7.5; 40 mM CaCl2, and a change of buffer after 4 hours, 5 μl were employed directly in the test. Blood was employed directly following lysis with doubly distilled H2 O. A 25mer oligonucleotide diester was employed as the positive control for digestion by the nucleases.
as §1

Proteinase K = Proteinase K (Parengyodontium album, UniProt P06873); assay: Stability towards proteases: Proteinase K; format: in vitro ADME; details: 75 μg of oligomer, 5 μl of protease, 37° C., 3 hours; PAGE, UV shadowing, silver staining; note: key: '+' denotes stability; no enzymic degradation
Proteinase K, sequence (P06873 106-384): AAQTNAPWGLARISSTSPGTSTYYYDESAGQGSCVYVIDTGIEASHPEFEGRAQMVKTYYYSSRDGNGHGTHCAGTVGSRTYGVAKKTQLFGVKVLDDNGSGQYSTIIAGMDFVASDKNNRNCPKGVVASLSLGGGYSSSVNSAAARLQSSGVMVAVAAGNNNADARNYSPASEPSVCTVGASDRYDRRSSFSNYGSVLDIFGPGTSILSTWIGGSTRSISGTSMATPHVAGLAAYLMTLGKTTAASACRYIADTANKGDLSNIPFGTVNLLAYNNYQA
Description: as §2

[2] = Stability of nucleic acid-binding oligomers towards proteases and nucleases (overall statements); format: in vitro ADME; details: 37° C., 3 hours
Description: For this purpose, the nucleic acid-binding oligomers were treated-with non-specific and specific proteases, such as, for example, pronase E, proteinase K, trypsin, endoprotease Lys.C, V8 protease, protease IX and protease XXI, nucleases, such as, for example, S1 nuclease and Ba131 nuclease, phosphodiesterase, and cell extracts and organ extracts and blood serum and blood extracts which contain various nucleases and proteases. The oligomers were examined for degradation by polyacrylamide gel electrophoresis and UV shadowing on TLC plates containing UV indicator and by silver-staining the polyacrylamide gels.
Cell extracts from T lymphocytes and blood were also employed for the stability investigations in addition to the purified, defined proteases. For this purpose, 50 ml of cell suspension were centrifuged down at 2000 rpm, taken up in 500 μl of Tris/HCl buffer, pH 7.5; 40 mM CaCl2, and lysed with 5 μl of 20% SDS. Following dialysis against 0.1 M Tris/HCl, pH 7.5; 40 mM CaCl2, and a change of buffer after 4 hours, 5 μl were employed directly in the test. Blood was lysed directly with doubly distilled H2 O and 5 μl were then employed in the test. Bovine serine albumin (BSA) and lysozyme were used as positive controls for digestion by the proteases. […]

[3] = system: double-stranded plasmid DNA containing two poly-adenine sequence regions; assay: Strand displacement in double-stranded plasmid DNA; details: S1 nuclease digestion at high salt concentrations
Description: Double-stranded, circular plasmid DNA, which is of 4880 base pairs in length and which contains two poly-adenine sequence regions having at least nine consecutive adenine nucleotides, which sequence regions are at a distance apart of 1150 base pairs, is used in the tests described here.
Subsequently, 4 μl of buffer (250 mM Na acetate, 1 M NaCl, 2.5% glycerol, 5 mM ZnCl2, pH 4.4) were added to all the samples while 1 μl of S1 nuclease from Aspergillus oryzae (from Boehringer Mannheim), having an activity of 10 U/μl, was added to each of samples 2 to 6. After having been incubated at 30° C. for 15 minutes, the samples were placed on ice, 1 μl of 0.5 M EDTA and 3 μl of loading buffer (50% glycerol, 0.25% bromophenol blue in 40 mM Tris/HCl, 20 mM sodium acetate, 1 mM EDTA, pH=7.2) were added, and, without delay, the samples were fractionated electrophoretically on 1.2% agarose gels and, after staining with ethidium bromides, the sizes of the resulting plasmid fragments on the gel were determined by comparison with a molecular weight standard (1-kb ladder, from Gibco-BRL, D-7514 Eggenstein) on a transilluminator using 254 nm UV light.

[4] = Stability towards nucleases: T-lymphocyte extract; format: in vitro ADME; details: 75 μg of oligomer, nuclease buffer, 37° C., 3 hours; note: key: '+' denotes stability; no enzymic degradation
Description: as §3, §1

Pronase E = assay: Stability towards proteases: Pronase E; format: in vitro ADME; details: 75 μg of oligomer, 5 μl of protease, 37° C., 3 hours; PAGE, UV shadowing, silver staining; note: key: '+' denotes stability; no enzymic degradation
Description: as §2

[5] = Stability towards proteases: extracts of T-lymphocyte cells; format: in vitro ADME; details: 75 μg of oligomer, 5 μl of extract, protease buffer, 37° C., 3 hours; note: key: '+' denotes stability; no enzymic degradation
Description: (§4) Cell extracts from T lymphocytes and blood were also employed for the stability investigations in addition to the purified, defined proteases. For this purpose, 50 ml of cell suspension were centrifuged down at 2000 rpm, taken up in 500 μl of Tris/HCl buffer, pH 7.5; 40 mM CaCl2, and lysed with 5 μl of 20% SDS. Following dialysis against 0.1 M Tris/HCl, pH 7.5; 40 mM CaCl2, and a change of buffer after 4 hours, 5 μl were employed directly in the test. Blood was lysed directly with doubly distilled H2 O and 5 μl were then employed in the test. Bovine serine albumin (BSA) and lysozyme were used as positive controls for digestion by the proteases.
as §2

[6] = Stability towards proteases: blood extract; format: in vitro ADME; details: 75 μg of oligomer, 5 μl of lysed blood, protease buffer, 37° C., 3 hours; note: key: '+' denotes stability; no enzymic degradation
Description: as §4, §2

| Substance | Stability towards S1 nuclease (S1 nuclease) | Stability towards Endoprotease LYS--C (Endoprotease LYS--C) | Stability towards Trypsin (Trypsin) | Stability towards Bal31 nuclease (Bal31 nuclease) | Stability towards Protease IX (Protease IX) | Stability towards Protease XXI (Protease XXI) | Stability towards blood, nuclease test [1] | Stability towards Proteinase K (Proteinase K) | Stability towards the proteases and cell extracts which were tested [2] | Binding to double-stranded DNA (strand displacement), result in words [3] | Stability towards T-lymphocyte extract, nuclease test [4] | Stability towards Pronase E (Pronase E) | Stability towards extracts of T-lymphocyte cells (HUT, U 937), protease test [5] | Stability towards extract of blood, protease test [6] |
| --- | --- | --- | --- | --- | --- | --- | --- | --- | --- | --- | --- | --- | --- | --- |
| H--(III T)12 --Lys--OH [H-(IIIT)12 -Lys--OH] | + | + | + | + | + | + | + | + | stable | concentration-dependent and sequence-selective binding | + | + | + | + |
| H--(III T)8 --Ala--OH [H-(IIIT)8 -Ala--OH] | + | + | + | + | + | + | + | + | stable |  | + | + | + | + |
